Source: ChEMBL document CHEMBL1287698, “Artemisinin-quinoline hybrid-dimers: synthesis and in vitro antiplasmodial activity” (Bioorg Med Chem Lett, 2010)

Columns and labels:
[1] = tested on: Plasmodium falciparum; experiment: Antiplasmodial activity against chloroquine-sensitive Plasmodium falciparum D10; assay type: functional, organism-based
[2] = Selectivity index, ratio of IC50 for CHO cells to IC50 of chloroquine-sensitive Plasmodium falciparum D10; assay type: toxicity, cell-based; conditions: hamster, read-out: Ratio IC50
[3] = tested on: CHO; experiment: Cytotoxicity against CHO cells by MTT assay; assay type: cell-based; conditions: Cricetulus griseus
[4] = tested on: Plasmodium falciparum; experiment: Antiplasmodial activity against chloroquine-resistant Plasmodium falciparum Dd2; assay type: functional, organism-based
[5] = tested on: Plasmodium falciparum; experiment: Resistance index, ratio of IC50 for chloroquine-resistant Plasmodium falciparum Dd2 to IC50 for chloroquine-sensitive Plasmodium falciparum D10; assay type: functional

SMILES | IC50 [1] | selectivity ratio [2] | IC50 [3] | IC50 [4] | Ratio IC50 [5]
C[C@H]1[C@@H](OCCN(CCNc2ccnc3cc(Cl)ccc23)CCO[C@H]2O[C@@H]3O[C@]4(C)CC[C@H]5[C@H](C)CC[C@@H]([C@H]2C)[C@@]35OO4)O[C@@H]2O[C@]3(C)CC[C@H]4[C@H](C)CC[C@@H]1[C@@]24OO3 | 7.37 nM | 1360 | 10 nM | 46.1 nM | 6
C[C@H]1[C@@H](OCCN(CCCNc2ccnc3cc(Cl)ccc23)CCO[C@H]2O[C@@H]3O[C@]4(C)CC[C@H]5[C@H](C)CC[C@@H]([C@H]2C)[C@@]35OO4)O[C@@H]2O[C@]3(C)CC[C@H]4[C@H](C)CC[C@@H]1[C@@]24OO3 | 5.31 nM | 128 | 0.68 nM | 28.4 nM | 5
C[C@H]1[C@@H](OCCN(CCCCNc2ccnc3cc(Cl)ccc23)CCO[C@H]2O[C@@H]3O[C@]4(C)CC[C@H]5[C@H](C)CC[C@@H]([C@H]2C)[C@@]35OO4)O[C@@H]2O[C@]3(C)CC[C@H]4[C@H](C)CC[C@@H]1[C@@]24OO3 | 89 nM | 61 | 5.43 nM | 205 nM | 2
C[C@H]1[C@@H](O[N+]2(CCO[C@H]3O[C@H]4O[C@]5(C)CC[C@H]6[C@H](C)CC[C@@H]([C@H]3C)[C@@]46OO5)CCN(CCNc3ccnc4cc(Cl)ccc34)CC2)O[C@@H]2O[C@]3(C)CC[C@H]4[C@H](C)CC[C@@H]1[C@@]24OO3.[Br-] | 19.6 nM | 3810 | 74.8 nM | 55.7 nM | 3
C[C@H]1[C@@H](O)O[C@@H]2O[C@@]3(C)CC[C@H]4[C@H](C)CC[C@@H]1[C@@]24OO3 [ARTENIMOL] | 5.11 nM | – | – | 2.09 nM | –
CC[C@H]1CN2CCc3cc(OC)c(OC)cc3[C@@H]2C[C@@H]1C[C@H]1NCCc2cc(OC)c(OC)cc21 [EMETINE] | – | – | – | – | 0.4
